According to publication PMC9274761, “Effects of Structurally Different HDAC Inhibitors against Trypanosoma cruzi, Leishmania, and Schistosoma mansoni” (ACS Infectious Diseases, 2022):

How the values were obtained:
Leishmania = tested on: Leishmania; design: method as in PMID 28107750; details: 10 and 20 μM; cited from earlier work
[1] = tested on: S. mansoni schistosomula, adult worm pairs, and egg production; design: method as in PMID 28107750; details: 10 μM; cited from earlier work
HDAC6 = target: T1, HDAC6 (Homo sapiens, UniProt Q9UBN7); assay: HDAC6 protease-coupled fluorescence (AMC) inhibition assay; format: biochemical; details: hr enzyme, 10-dose, 3-fold dilution from 50 μM (3: from 300 μM); read-out: IC50 against HDAC6
T1 sequence (Q9UBN7 1-1215): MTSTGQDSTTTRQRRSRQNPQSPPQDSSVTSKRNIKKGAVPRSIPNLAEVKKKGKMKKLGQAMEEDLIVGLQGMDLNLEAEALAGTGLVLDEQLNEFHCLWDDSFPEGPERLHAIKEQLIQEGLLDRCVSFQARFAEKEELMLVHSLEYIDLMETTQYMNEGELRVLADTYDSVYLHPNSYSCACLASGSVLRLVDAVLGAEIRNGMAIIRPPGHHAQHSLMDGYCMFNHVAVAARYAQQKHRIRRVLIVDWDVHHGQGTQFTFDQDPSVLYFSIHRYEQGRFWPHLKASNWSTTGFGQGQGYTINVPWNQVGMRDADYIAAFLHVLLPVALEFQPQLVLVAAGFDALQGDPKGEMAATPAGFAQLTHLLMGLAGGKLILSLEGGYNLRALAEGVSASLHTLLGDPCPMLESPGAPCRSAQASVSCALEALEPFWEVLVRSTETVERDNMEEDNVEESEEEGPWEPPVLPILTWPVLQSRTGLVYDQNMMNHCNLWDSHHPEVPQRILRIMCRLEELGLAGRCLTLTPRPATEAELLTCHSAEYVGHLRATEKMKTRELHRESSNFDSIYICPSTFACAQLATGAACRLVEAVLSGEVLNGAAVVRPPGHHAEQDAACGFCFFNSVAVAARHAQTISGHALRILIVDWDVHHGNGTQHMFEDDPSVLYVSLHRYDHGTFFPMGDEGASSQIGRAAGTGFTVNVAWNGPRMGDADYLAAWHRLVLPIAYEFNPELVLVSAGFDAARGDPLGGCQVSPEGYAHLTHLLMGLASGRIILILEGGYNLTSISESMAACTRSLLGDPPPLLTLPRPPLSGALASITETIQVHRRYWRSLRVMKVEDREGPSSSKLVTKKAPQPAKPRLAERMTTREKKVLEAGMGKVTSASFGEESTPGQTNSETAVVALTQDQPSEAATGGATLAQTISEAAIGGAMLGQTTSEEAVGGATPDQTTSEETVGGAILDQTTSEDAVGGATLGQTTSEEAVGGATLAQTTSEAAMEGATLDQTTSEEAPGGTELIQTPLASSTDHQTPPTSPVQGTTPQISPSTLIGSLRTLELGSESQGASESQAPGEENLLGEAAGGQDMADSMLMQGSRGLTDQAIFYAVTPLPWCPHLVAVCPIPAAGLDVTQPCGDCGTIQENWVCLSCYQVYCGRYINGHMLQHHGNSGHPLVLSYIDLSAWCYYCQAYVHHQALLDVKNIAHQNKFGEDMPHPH
Source text: (§1) The new hydroxamates 2 and 6 were screened and profiled via a protease-coupled assay in which the quantification of HDAC enzyme activity is based on the formation of a free fluorescent group, the 7-amino-4-methyl coumarin (AMC).[42] […] After deacetylation by HDACs, the de(trifluoro)acetylated AMC–peptides were sensitive toward lysine peptidase and free fluorogenic AMC was generated and quantified.[42]
(§2) To gain insights into its inhibition profile for human HDACs, we tested 3 against hrHDACs 1–6 and 8 following the above procedure (Table 1).
(§3) Individual IC50 values for each HDAC isozyme were measured with the homogeneous fluorescence release HDAC assay.[42]

[2] = tested on: L. donovani promastigotes; assay: Resazurin reduction assay, L. donovani promastigotes; format: cell-based; details: Leishmania donovani, read-out: percentage of inhibition, L. donovani promastigotes
[3] = tested on: newly transformed schistosomula (NTS); assay: Phenotypic screening on newly transformed schistosomula (NTS); format: cell-based, Schistosoma mansoni
[4] = tested on: L. donovani axenic amastigotes; assay: Resazurin reduction assay, L. donovani axenic amastigotes; format: cell-based; details: Leishmania donovani, read-out: percentage of inhibition, L. donovani axenic amastigotes
HDAC4 = HDAC4 (Homo sapiens, UniProt P56524); assay: HDAC4 protease-coupled fluorescence (AMC) inhibition assay; format: biochemical; details: hr enzyme, class IIa substrate Boc-Lys(trifluoroacetyl)-AMC; read-out: IC50 against HDAC4
HDAC4, sequence (P56524 whole entry): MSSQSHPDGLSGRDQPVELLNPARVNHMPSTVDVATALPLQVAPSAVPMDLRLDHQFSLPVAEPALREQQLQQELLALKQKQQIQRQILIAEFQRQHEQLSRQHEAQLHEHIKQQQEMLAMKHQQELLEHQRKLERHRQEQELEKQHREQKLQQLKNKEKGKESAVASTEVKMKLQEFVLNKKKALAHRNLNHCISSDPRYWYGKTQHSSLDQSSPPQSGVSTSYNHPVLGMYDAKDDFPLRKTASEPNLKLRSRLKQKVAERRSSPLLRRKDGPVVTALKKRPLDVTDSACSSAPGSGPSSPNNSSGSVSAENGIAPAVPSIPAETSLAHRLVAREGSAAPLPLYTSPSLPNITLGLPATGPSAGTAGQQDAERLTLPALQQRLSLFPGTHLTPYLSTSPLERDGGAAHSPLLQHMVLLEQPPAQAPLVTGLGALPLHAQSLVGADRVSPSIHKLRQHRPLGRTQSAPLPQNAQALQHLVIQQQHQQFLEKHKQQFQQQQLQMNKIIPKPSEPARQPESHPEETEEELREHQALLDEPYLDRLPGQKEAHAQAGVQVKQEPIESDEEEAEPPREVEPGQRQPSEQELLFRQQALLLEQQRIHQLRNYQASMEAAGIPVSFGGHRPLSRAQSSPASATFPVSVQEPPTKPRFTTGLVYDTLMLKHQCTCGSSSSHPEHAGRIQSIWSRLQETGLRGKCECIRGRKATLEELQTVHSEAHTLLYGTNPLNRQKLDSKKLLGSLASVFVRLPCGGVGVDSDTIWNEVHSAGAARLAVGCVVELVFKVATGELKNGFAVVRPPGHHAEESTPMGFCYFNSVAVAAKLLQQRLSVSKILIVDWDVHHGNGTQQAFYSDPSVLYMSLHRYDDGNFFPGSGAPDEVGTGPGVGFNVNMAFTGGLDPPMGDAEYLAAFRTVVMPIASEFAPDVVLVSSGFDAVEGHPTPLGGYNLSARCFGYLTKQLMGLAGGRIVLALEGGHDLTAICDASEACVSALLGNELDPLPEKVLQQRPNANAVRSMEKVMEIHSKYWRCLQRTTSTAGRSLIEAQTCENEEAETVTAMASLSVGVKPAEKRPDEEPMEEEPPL
Source text: as §1, §2, §3

in vitro = details: mouse, noninfected L929 fibroblast cells
HDAC1 = HDAC1 (Homo sapiens, UniProt Q13547); assay: HDAC1 protease-coupled fluorescence (AMC) inhibition assay; format: biochemical; details: hr enzyme, 10-dose, 3-fold dilution from 50 μM (3: from 300 μM); read-out: IC50 against HDAC1
HDAC1, sequence (Q13547 whole entry): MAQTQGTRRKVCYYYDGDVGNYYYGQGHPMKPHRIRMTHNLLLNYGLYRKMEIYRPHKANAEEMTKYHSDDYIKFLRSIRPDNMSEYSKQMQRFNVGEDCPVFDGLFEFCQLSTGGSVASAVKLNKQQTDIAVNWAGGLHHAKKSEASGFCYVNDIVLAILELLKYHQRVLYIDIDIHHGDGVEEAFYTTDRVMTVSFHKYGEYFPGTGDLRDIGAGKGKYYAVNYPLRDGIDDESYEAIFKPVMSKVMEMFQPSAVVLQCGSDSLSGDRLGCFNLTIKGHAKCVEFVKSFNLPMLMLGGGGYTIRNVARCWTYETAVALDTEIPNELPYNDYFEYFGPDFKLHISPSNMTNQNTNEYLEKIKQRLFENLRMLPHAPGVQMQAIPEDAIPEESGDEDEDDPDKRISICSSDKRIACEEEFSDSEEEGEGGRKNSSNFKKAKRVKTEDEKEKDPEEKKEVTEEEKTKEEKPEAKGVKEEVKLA
Source text: as §1, §2, §3

HDAC2 = HDAC2 (Homo sapiens, UniProt Q92769); assay: HDAC2 protease-coupled fluorescence (AMC) inhibition assay; format: biochemical; details: hr enzyme, 10-dose, 3-fold dilution from 50 μM (3: from 300 μM); read-out: IC50 against HDAC2
HDAC2, sequence (Q92769 whole entry): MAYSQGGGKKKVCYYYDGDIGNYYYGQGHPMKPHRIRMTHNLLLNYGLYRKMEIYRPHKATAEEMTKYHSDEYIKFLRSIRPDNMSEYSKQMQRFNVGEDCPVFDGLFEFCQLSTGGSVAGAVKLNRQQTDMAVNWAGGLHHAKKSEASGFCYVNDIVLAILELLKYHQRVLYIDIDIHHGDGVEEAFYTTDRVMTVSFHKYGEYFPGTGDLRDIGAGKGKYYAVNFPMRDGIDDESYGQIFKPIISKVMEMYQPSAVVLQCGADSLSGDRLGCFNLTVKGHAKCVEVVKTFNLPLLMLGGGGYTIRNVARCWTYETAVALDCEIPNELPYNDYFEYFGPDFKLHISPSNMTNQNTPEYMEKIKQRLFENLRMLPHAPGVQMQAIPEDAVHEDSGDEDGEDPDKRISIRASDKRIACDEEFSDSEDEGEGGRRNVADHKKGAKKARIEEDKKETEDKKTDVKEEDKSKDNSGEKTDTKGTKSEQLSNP
Source text: as §1, §2, §3

HDAC3 = HDAC3 (Homo sapiens, UniProt O15379); assay: HDAC3 protease-coupled fluorescence (AMC) inhibition assay; format: biochemical; details: hr enzyme, 10-dose, 3-fold dilution from 50 μM (3: from 300 μM); read-out: IC50 against HDAC3
HDAC3, sequence (O15379 whole entry): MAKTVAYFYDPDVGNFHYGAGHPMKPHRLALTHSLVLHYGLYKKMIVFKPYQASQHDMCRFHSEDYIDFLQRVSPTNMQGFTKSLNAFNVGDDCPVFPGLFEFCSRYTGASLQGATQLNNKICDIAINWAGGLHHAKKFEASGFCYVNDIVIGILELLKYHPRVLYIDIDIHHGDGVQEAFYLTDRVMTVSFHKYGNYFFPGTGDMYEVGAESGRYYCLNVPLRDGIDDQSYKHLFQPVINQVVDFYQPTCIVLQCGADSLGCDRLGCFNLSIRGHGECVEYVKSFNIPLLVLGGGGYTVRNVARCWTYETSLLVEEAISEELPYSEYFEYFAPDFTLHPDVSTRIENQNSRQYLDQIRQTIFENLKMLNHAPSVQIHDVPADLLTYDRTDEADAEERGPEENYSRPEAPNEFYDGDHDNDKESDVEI
HDAC3, sequence (Q9Y618 395-489 partner limits assumed): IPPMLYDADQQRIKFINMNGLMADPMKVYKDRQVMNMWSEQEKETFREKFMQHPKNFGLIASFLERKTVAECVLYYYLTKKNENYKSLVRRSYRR
Source text: as §1, §2, §3

[5] = tested on: T. cruzi amastigotes and trypomastigotes; assay: T. cruzi infection assay in L929 cells (beta-galactosidase Tulahuen strain); format: cell-based, Trypanosoma cruzi
HDAC8 = target: T2, HDAC8 (Homo sapiens, UniProt Q9BY41); assay: HDAC8 protease-coupled fluorescence (AMC) inhibition assay; format: biochemical; details: hr enzyme, substrate RHK(Ac)K(Ac)AMC; read-out: IC50 against HDAC8
T2 sequence (Q9BY41 1-377): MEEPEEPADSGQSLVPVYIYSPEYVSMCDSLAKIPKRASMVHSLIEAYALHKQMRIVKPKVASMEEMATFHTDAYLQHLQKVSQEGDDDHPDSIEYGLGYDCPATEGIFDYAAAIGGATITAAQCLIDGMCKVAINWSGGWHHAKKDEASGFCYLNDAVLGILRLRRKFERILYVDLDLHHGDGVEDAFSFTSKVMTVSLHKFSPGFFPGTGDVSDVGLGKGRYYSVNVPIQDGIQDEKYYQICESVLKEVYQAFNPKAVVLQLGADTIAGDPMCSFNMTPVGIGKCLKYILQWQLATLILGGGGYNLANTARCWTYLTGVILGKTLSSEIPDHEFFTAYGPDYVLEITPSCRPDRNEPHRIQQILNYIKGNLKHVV
Source text: as §1, §2, §3

[6] = tested on: L. amazonensis promastigotes; assay: Resazurin reduction assay, L. amazonensis promastigotes; format: cell-based; details: Leishmania amazonensis; 20 μM; read-out: percentage of inhibition, L. amazonensis promastigotes
HDAC5 = HDAC5 (Homo sapiens, UniProt Q9UQL6); assay: HDAC5 protease-coupled fluorescence (AMC) inhibition assay; format: biochemical; details: hr enzyme, class IIa substrate Boc-Lys(trifluoroacetyl)-AMC; read-out: IC50 against HDAC5
HDAC5, sequence (Q9UQL6 whole entry): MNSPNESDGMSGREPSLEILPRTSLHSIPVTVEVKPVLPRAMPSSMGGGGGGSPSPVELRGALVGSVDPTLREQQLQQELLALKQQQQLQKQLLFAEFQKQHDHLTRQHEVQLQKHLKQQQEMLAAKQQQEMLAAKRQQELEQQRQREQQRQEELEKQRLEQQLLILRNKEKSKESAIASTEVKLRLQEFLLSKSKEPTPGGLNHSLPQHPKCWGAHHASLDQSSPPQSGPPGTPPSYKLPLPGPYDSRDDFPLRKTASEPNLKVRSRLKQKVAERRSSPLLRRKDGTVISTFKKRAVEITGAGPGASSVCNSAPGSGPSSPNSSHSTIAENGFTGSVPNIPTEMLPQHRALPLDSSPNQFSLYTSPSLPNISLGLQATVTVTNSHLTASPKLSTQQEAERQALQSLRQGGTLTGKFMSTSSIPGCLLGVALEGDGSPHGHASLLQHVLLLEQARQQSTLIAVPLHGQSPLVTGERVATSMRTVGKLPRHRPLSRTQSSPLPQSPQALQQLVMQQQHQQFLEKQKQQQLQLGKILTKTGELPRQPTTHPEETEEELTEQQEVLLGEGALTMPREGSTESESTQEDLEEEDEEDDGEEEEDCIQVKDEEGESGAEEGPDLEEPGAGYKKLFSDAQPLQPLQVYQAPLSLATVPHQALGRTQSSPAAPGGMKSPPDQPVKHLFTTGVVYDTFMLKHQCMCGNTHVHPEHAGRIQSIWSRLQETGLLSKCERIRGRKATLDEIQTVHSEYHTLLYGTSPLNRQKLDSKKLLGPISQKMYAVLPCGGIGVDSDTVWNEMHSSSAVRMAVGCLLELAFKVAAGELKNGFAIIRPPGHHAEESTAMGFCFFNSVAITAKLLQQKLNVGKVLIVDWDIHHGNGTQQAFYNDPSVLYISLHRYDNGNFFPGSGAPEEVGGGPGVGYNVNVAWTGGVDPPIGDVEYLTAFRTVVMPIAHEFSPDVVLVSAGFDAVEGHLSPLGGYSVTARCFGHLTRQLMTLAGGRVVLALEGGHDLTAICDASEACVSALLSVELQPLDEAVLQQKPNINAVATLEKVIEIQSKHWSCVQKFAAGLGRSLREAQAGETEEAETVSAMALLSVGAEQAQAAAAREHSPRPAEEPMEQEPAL
Source text: as §1, §2, §3

Q: Which “effect in Leishmania” value (Leishmania) does the source give for `Cc1[nH]c2ccccc2c1CCNCc1ccc(/C=C/C(=O)NO)cc1` [panobinostat] here?
A: ineffective and/or exhibited too high toxicity for macrophages

Q: And the “effects in schistosomula, adult worm pairs, and egg production” value [1]?
A: only moderate effects

Q: With `C/C=C1\NC(=O)[C@H]2CSSCC/C=C/[C@H](CC(=O)N[C@H](C(C)C)C(=O)N2)OC(=O)[C@H](C(C)C)NC1=O` [romidepsin] as the compound, how does the “effect in Leishmania” value (Leishmania) read?
A: ineffective and/or exhibited too high toxicity for macrophages

Q: And the “effects in schistosomula, adult worm pairs, and egg production” value [1]?
A: only moderate effects

Q: Which IC50 (HDAC6) does the source give for `Cn1c(/C=C/C(=O)NO)ccc1/C=C/C(=O)c1cccc(Cl)c1` [Compound 3] here?
A: 6.1 µM

Q: And the inhibition at 0.8 µM ([2]; 0.8 μM)?
A: 3.8 ± 3.4%

Q: And the inhibition at 4 µM ([2]; 4 μM)?
A: 1.7 ± 1.5%

Q: And the inhibition at 20 µM ([2]; 20 μM)?
A: 6.8 ± 1.8%

Q: What about the “percentage of NTS activity, 72 h” value ([3]; 10 μM) of the same compound?
A: 22.3 ± 2.0%

Q: And the “percentage of NTS activity, 72 h” value ([3]; 20 μM)?
A: 23.5 ± 0.9%

Q: And the IC50 ([3]; Schistosoma mansoni, 72 h, read-out: IC50, viability of NTS)?
A: > 20 µM

Q: And the inhibition at 0.8 µM ([4]; 0.8 μM)?
A: 4.9 ± 4.9%

Q: What about the inhibition at 4 µM ([4]; 4 μM) of the same compound?
A: 50.8 ± 2.4%

Q: What about the inhibition at 20 µM ([4]; 20 μM) of the same compound?
A: 74.9 ± 1.3%

Q: What about the IC50 (HDAC4) of the same compound?
A: 132 µM

Q: What about the CC50 at 96 h (in vitro) of the same compound?
A: 40 µM

Q: What about the IC50 (HDAC1) of the same compound?
A: > 300 µM

Q: What about the IC50 (HDAC2) of the same compound?
A: 257 µM

Q: What about the IC50 (HDAC3) of the same compound?
A: > 300 µM

Q: What about the “percentage of T. cruzi growth inhibition” value ([5]; 80 μM, infected L929 cells, 96 h, toxic = L929 death) of the same compound?
A: toxic

Q: What about the “percentage of T. cruzi growth inhibition” value ([5]; 160 μM, infected L929 cells, 96 h, toxic = L929 death) of the same compound?
A: toxic

Q: What about the “selectivity index (SI), CC50/EC50” value ([5]; L929 CC50 / T. cruzi EC50) of the same compound?
A: 5.7

Q: And the EC50 ([5]; Trypanosoma cruzi, L929, 96 h, infected L929 cells, 96 h, mean ± SD, read-out: EC50, growth of T. cruzi amastigotes and trypomastigotes)?
A: 7 ± 0.2 µM

Q: And the inhibition at 1.25 µM ([5]; Trypanosoma cruzi, 1.25 μM, infected L929 cells, 96 h, read-out: percentage of T. cruzi growth inhibition)?
A: 0%

Q: And the inhibition at 2.5 µM ([5]; Trypanosoma cruzi, 2.5 μM, infected L929 cells, 96 h, toxic = L929 death, read-out: percentage of T. cruzi growth inhibition)?
A: 2%

Q: And the inhibition at 5 µM ([5]; Trypanosoma cruzi, 5 μM, infected L929 cells, 96 h, toxic = L929 death, read-out: percentage of T. cruzi growth inhibition)?
A: 39%

Q: What about the inhibition at 10 µM ([5]; Trypanosoma cruzi, 10 μM, infected L929 cells, 96 h, toxic = L929 death, read-out: percentage of T. cruzi growth inhibition) of the same compound?
A: 67%

Q: What about the inhibition at 20 µM ([5]; Trypanosoma cruzi, 20 μM, infected L929 cells, 96 h, toxic = L929 death, read-out: percentage of T. cruzi growth inhibition) of the same compound?
A: 87%

Q: And the inhibition at 40 µM ([5]; Trypanosoma cruzi, 40 μM, infected L929 cells, 96 h, toxic = L929 death, read-out: percentage of T. cruzi growth inhibition)?
A: 90%

Q: And the IC50 (HDAC8)?
A: 2 µM

Q: And the inhibition at 20 µM [6]?
A: 9.1 ± 6.3%

Q: And the IC50 (HDAC5)?
A: 131 µM

Q: What does the source list for `O=C(/C=C/c1cccc(S(=O)(=O)Nc2ccccc2)c1)NO` [belinostat]?
A: effect in Leishmania (Leishmania): ineffective and/or exhibited too high toxicity for macrophages; effects in schistosomula, adult worm pairs, and egg production [1]: only moderate effects

Q: What does the source list for `O=C(CCCCCCC(=O)Nc1ccccc1)NO` [SAHA]?
A: effect in Leishmania (Leishmania): ineffective and/or exhibited too high toxicity for macrophages; effects in schistosomula, adult worm pairs, and egg production [1]: only moderate effects
